Source: patent US4764590A, “Des-19-leucine, 20-glutamine, 21-threonine-calcitonin” (Rorer Pharmaceutical Corporation, priority 1987, dated 1988)
Where a SMILES comes first, the peptide text is derived from it.

Key:
[1] = test system: serum calcium concentration; conditions: standard used in the rat assay; cited from earlier work
[2] = test system: serum calcium concentration; experiment: Biological assay of calcitonin analogs in vivo: reduction of serum calcium concentration, 2×2 parallel line assay; conditions: rats, subcutaneous injection, blood withdrawn 1 hour later, versus synthetic salmon calcitonin standard
Protocol: Biological Assay of Calcitonin Analogs in Vivo
The biological potency of des-19-leucine, 20-glutamine, 21-threonine-salmoncalcitonin was determined by comparing the reduction of serum calcium concentration which followed administration by graded doses of des-Leu^19, Gln^20, Thr^21 -SCT and synthetic salmon calcitonin standard. Rats were divided into four groups of seven animals, and each group was assigned at random to a dose of standard or test solution. Low and high doses were chosen from the linear portion of the dose-response curve. For the salmon calcitonin standard, the values were 0.7 and 2.1 ng. peptide/100 g. body weight (BW). This dose approximates 3 and 9 MU/100 g. BW. Peptides were given by subcutaneous injection (0.2 ml/100 g. BW) and blood was withdrawn 1 hour later for serum calcium determination. Sera are processed and analyzed within two hours of collection. […]. Results were analyzed by a 2×2 parallel line assay [Gaddum, J. H., J. Pharm. Pharmacol., 6, 345 (1953)]. The standard salmon calcitonin used was independently determined to contain greater than 4,000 IU/mg. des-Leu^19, Gln^20, Thr^21 -SCT assayed at 7100 IU/mg.

[3] = Monikawa et al., Experientia 32(9), 1104-1106 (1976); cited from earlier work

Compound	hypocalcemic potency [3]	also measured
Salmon calcitonin [standard salmon calcitonin]		potency of the standard salmon calcitonin, independently determined [1]: greater than 4,000 IU/mg
CC(C)C[C@H](NC(=O)[C@H](CCCCN)NC(=O)CNC(=O)[C@H](CC(C)C)NC(=O)[C@@H](NC(=O)[C@@H]1CSSC[C@H](N)C(=O)N[C@@H](CO)C(=O)N[C@@H](CC(N)=O)C(=O)N[C@@H](CC(C)C)C(=O)N[C@@H](CO)C(=O)N[C@@H]([C@@H](C)O)C(=O)N1)C(C)C)C(=O)N[C@@H](CO)C(=O)N[C@@H](CCC(N)=O)C(=O)N[C@@H](CCC(=O)O)C(=O)N[C@@H](CC(C)C)C(=O)N[C@@H](Cc1c[nH]cn1)C(=O)N[C@@H](CCCCN)C(=O)N[C@@H](Cc1ccc(O)cc1)C(=O)N1CCC[C@H]1C(=O)N[C@@H](CCCNC(=N)N)C(=O)N[C@H](C(=O)N[C@@H](CC(N)=O)C(=O)N[C@H](C(=O)NCC(=O)N[C@@H](CO)C(=O)NCC(=O)N[C@H](C(=O)N1CCC[C@H]1C(N)=O)[C@@H](C)O)[C@@H](C)O)[C@@H](C)O [des-Leu^19, Gln^20, Thr^21 -SCT, des-19-leucine, 20-glutamine, 21-threonine-salmon calcitonin] (HELM PEPTIDE1{C.S.N.L.S.T.C.V.L.G.K.L.S.Q.E.L.H.K.Y.P.R.T.N.T.G.S.G.T.P.[am]}$PEPTIDE1,PEPTIDE1,1:R3-7:R3$$$V2.0)		biological potency (reduction of serum calcium concentration) [2]: 7100 IU/mg
(1,7-alpha-L-amino-suberic acid) eel calcitonin	about 3400 IU/mg.	
eel calcitonin [synthetic eel calcitonin]	around 4300 IU/mg.	
